Assay results taken from patent US10898592B2, “Compositions and methods for reducing the risk of post-imaging pancreatitis” (University Of Pittsburgh—Of The Commonwealth System Of …, priority 2015, dated 2021).

Legend:
primary acinar cells = assay: Cell necrosis assay (propidium iodide uptake), primary acinar cells; type: cell-based, mouse; details: 6 hr incubation; U73122 5 μM; 2-APB 100 μM; BAPTA 64 μM; IKK-2 20 μM; FK506 24 μM; CsA 16 μM
Experimental: Cell necrosis assay. Acinar cells were incubated in a 48-well plate with 50 μg/ml of propidium iodide (PI) for 30 min prior to addition of RC. Fluorescence was measured at 536 nm excitation and 617 nm emission wavelengths over time a time course of up to 6 hr. Fluorescence was measured after cell lysis with 0.5% Triton-X 100 was used to normalize the results relative to total DNA.

[1] = test system: calcineurin (NFAT-luciferase); assay: NFAT-luciferase activity assay, AR42J cells; type: cell-based; details: pretreatment; FK506 24 μM; CsA 16 μM; U73122 5 μM; 2-APB 100 μM; BAPTA 64 μM
Experimental: (§1) NFAT-luciferase activity assay. Acinar cells were infected with Ad-NFAT-luciferase following a previously described procedure^10,15,16. The construct includes a luciferase gene placed downstream of an IL-4 promoter which contains nine tandem NFAT binding sites^10. Acinar cells were incubated with the NFAT-driven luciferase adenovirus for 1.5 hr prior to stimulation. All of the stated inhibitors were added for 30 min prior to stimulation with RC. NFAT-luciferase was measured using the luciferase assay system. Briefly, cells were spun at 1,000 rpm for 5 min, washed with PBS, and lysed using reporter lysis 5× buffer (Promega #E397A, Madison, Wis.). Samples were vortexed and spun at 12,000 g for 2 min. Supernatant was plated, and luminescence was measured using a Synergy H1 plate reader (BioTek, Winooski, Vt.) and normalized to total protein.

NF-κB = assay: NF-κB-luciferase activity assay, AR42J cells; type: cell-based; details: U73122 5 μM; 2-APB 100 μM; BAPTA 64 μM
Experimental: NF-κB-luciferase activity assay. AR42J cells were differentiated towards an acinar phenotype by administering dexamethasone (100 nM) for 48-72 hr^17. AR42J cells were infected with Ad-NF-κB luciferase 16 h prior to stimulation using a previously described method^12. Following a wash with DMEM/F12 medium, acinar cells were evenly distributed in a 48-well plate and incubated for 30 min at 37° C. They were incubated with RC at varying concentrations and times. NF-κB-luciferase was measured using a commercially available luciferase assay (Promega, Madison, Wis.). Briefly, cells were spun at 1,000 rpm for 5 min, washed with PBS, and lysed using reporter lysis 5× buffer (Promega, catalog no. E397A). Samples were vortexed and spun at 12,000×g for 2 min. The supernatant was plated, and luminescence was measured using a Synergy H1 plate reader (BioTek, Winooski, Vt.) and normalized to total […].

[2] = test system: calcineurin (NFAT-luciferase); assay: NFAT-luciferase activity assay, human acinar cells; type: cell-based
Experimental: as §1

[3] = test system: calcineurin (NFAT-luciferase); assay: NFAT-luciferase activity assay (calcineurin activation), mouse primary acinar cells; type: cell-based; details: 30 min pre-treatment; FK506 24 μM; CsA 16 μM; BAPTA-AM 64 μM
Experimental: as §1

CC(=O)OCOC(=O)CN(CC(=O)OCOC(C)=O)c1ccccc1OCCOc1ccccc1N(CC(=O)OCOC(C)=O)CC(=O)OCOC(C)=O [BAPTA, BAPTA-AM]
effect on RC (12%)-induced acinar cell injury (PI uptake) (primary acinar cells): prevented | effect on RC (6%)-induced NFAT-luciferase activity [1]: prevented | effect on RC-induced NF-κB-luciferase levels (NF-κB): reduced | effect on RC (25%)-induced NFAT-luciferase activity [2]: prevented | effect on RC (9%)-induced rise in NFAT-luciferase [3]: completely reduced
